Assay results as given in patent publication US6486169B1, “Botanical drug for treatment and prevention of alzhimer's disease” (priority 2002, dated 2002).
Marks after values point to notes of the source that are not given here.

How the values were obtained:
[1] = system: DA in brain; experiment: Concentration of dopamine (DA) in brain; type: in vivo; details: 10 mg/kg each; control 880 ± 97
Excerpt: The effect of CLE and HUE on concentration of dopanmine (DA) was examined. The method of animal is as same as mentioned previously.

[2] = system: superoxide anion of pig brain; experiment: Postischemic SOD-inhibitable NBT reduction (superoxide anion generation) in pig brain; type: in vivo; details: piglets, ischemia-reperfusion, pretreated with HUE 0.5 mg/kg; ischemia-reperfusion control 12.9 ± 2.0, normal 2.8 ± 0.3
Method: Reperfusion injury after prolonged ischemia appeared to oxygen species of cerebral. The superoxide dismutase (SOD)-inhibitable nitroblue tetrazolium (NBT) reduction was determined as an index of superoxide anion generation in pig brain. In present study, effect of HUE on postischemic SOD-inhibitable NBT reduction was determined.
Piglets (1 kg) of either sex were anesthetized Anesthesia was maintained with α-chloralose. A catheter was inserted into a femoral artery to record blood pressure and to sample for blood gases and pH. Another catheter was placed in a femoral vein for injection of drugs. The trachea was cannulated, and the piglets were ventilated with room air. Body temperature was maintained at 37-38° C. with a water-circulating heating pad. Total cerebral ischemia was performed.
SOD-inhibitable NBT reduction was determined as an index of superoxide anion production. In control group, the piglets treated with vehicle (CSF). In treatment group, the piglets pretreated with HUE (0.5 mg/kg). SOD-inhibitable NBT reduction was determined for 20 minutes. For analysis, the slices were minced and homogenized in 1 N NaOH and 0.1% sodium dodecyl sulfate, the mixture centrifuged at 20,000 g for 20 min, the resulting supernatant discarded, and the pellet resuspended in 3 ml pyridine. […] The concentration of formazan in the resulting solution was determined spectrophotometrically at 515 nm.

[3] = system: RNA synthesis of brain cells; experiment: RNA synthesis of brain cells, 3H-U incorporation in cell free brain homogenate; type: in vivo, mice of DBA/2 strains; details: mice, injected 1.0 mg/kg, control (saline) 1280
Method: It is known that decline RNA content in cortical and cerebral cortex of AD. RNA of brain cell was determined.
Four months of male mice of DBA/2 strains used in experiment. Mice of treatment group injected HUE or CLE (dose was 1.0 mg/kg). Mice of control group were injected by same value of saline. Mice killed and brain was rapidly removed. Cell free brain homogenate preparations used in experiment. 0.5 μC ^3H-U (20 μCi/mM) was mixed with 1 ml homogenate suspension was incubated at 37° C. Homogenate precipitated with 10% trichloroacetic acid (TCA) and filtered onto glass fiber filters. The filters were washed with phosphate-buffered saline and placed in scintillation vials 10 ml of scintillation solution (which containing […]) were added to digested solution and determined at LSC and radioactive emissions were counted.

[4] = system: male mice of PBA/2 strains; experiment: Effect on memory (1): complex learning measures and memory in mice; type: in vivo; details: injected, normal = 100
Method: Four months of male mice of PBA/2 strains used in experiments. […] Mice of HUE group were injected 0.1, 0.5 and 1.0 mg/kg of HUE. The control group was injected saline. Complex learning measures and memory were determined in experiments. (Reference see “Mammalian Models for Research on Aging”, pp 23-180, edited by Committee on Animal Models for Research on Aging, Institute of Laboratory Animal resources, division of Biological Sciences and Assembly of Life Science, published by National Academy Press, Washington, D.C., 1981). Normal animals injected by saline. Control animals injected by anisodine. Anisodine caused mistake of memory.

[5] = system: LTP in CAI area of brain; experiment: Long-term potentiation (LTP) by electro-physiological method; type: in vivo; details: control 8
Excerpt: The long-term potentiation (LTP) is model of information stored in brain. LTP is as an index determined by electro-physiological method and express as mv in CAI area of brain.

[6] = system: brain protein synthesis; experiment: Brain protein synthesis, (14C) leucine incorporation in cell free brain homogenate; type: in vivo, mice of DBA/2 strains; details: mice, injected 1.0 mg/kg each, control 901
Method: It is known that an age-dependent decline in animal brain protein synthesis. The decreased incorporation of amino acids into proteins can be observed in vitro including brain slices, brain cell suspensions, cell free brain homogenate preparations from older animals. Four months of male mice of DBA/2 strains used in experiment. Mice of HUE group injected HUE and dose was 0.1, 0.5 and 1.0 mg/kg. Mice of control group were injected by same value of saline. Mice killed and brain was rapidly removed. Cell free brain homogenate preparations used in experiment. (^14C) leucine mixed with homogenate suspension was incubated at 37° C. Homogenate precipitated with 10% trichloroacetic acid (TCA) and filtered onto glass fiber filters. The filters were washed with phosphate-buffered saline and placed in scintillation vials 10 ml of scintillation solution (which containing […]) were added to digested solution and determined at LSC and radioactive emissions were counted.

[7] = system: male mice of PBA/2 strains; experiment: Effect on memory (2): anisodine-caused mistake of memory; type: in vivo; details: anisodine model, dose 50 mg/kg each (50 + 50 for combination), control 38.5 ± 4.0, normal 5.0 ± 1.2
Method: Four months of male mice of PBA/2 strains used in experiments. […] The control group was injected saline. Complex learning measures and memory were determined in experiments. (Reference see “Mammalian Models for Research on Aging”, pp 23-180, edited by Committee on Animal Models for Research on Aging, Institute of Laboratory Animal resources, division of Biological Sciences and Assembly of Life Science, published by National Academy Press, Washington, D.C., 1981). Normal animals injected by saline. Control animals injected by anisodine. Anisodine caused mistake of memory.

[8] = system: Ca++ concentration of brain cells; experiment: Ca++ concentration of brain cell; type: in vivo; details: control 112
Method: Method of animal is as same as example 7.
Ca^++ concentration of brain cell was determined.

[9] = system: N2a neuroblastoma cells exposed to Aβ; experiment: Viability of N2a neuroblastoma cells exposed to Alzheimer amyloid β protein; type: cell-based; details: 50 μm Aβ for 24 hours, HUE 50 μg/ml, βA alone 35.4, normal 97.5
Excerpt: In AD, the protein forms aggregates of insoluble β-pleated sheets of fibrillar βA protein(amyloid). The conformational change from soluble to fibrillar forms seems to be a spontaneous event. The fibrillization is increased with higher concentrations of βA and with the longer forms of βA, so any production of larger amounts of βA than normal or production of the larger, less soluble forms of βA will tend to increase plaque formation. Once the βA plaque has started to form, other molecules can interact with the nascent plaque to produce eventually the mature plaque with its associated areas of cell death. In present study, effect of HUE on neuroblastoma cells exposed to the Alzheimer amyloid β protein and Aβ was examined.
N2a neuroblastoma cells were cultured and then exposed to 50 μm Aβ for 24 hours.
Concentration of HUE was 50 μg/ml. Cells viability determined by fluorescent staining, iodide and the trypan blue exclusion methods were used in experiments.

Row | Compound | DA (ng/g brain) [1] [ng/g brain] | Pmol NBT/mm^2, 20 min (SOD-inhibitable NBT reduction) [2] | CPM (3H-U into RNA) [3] [CPM] | Increasing memory (%) ([4]; 0.1 mg/kg) | Increasing memory (%) ([4]; 0.5 mg/kg) | Increasing memory (%) ([4]; 1.0 mg/kg) | LTP (mv in CAI) [5] [mv] | CPM ((14C) leucine into protein) [6] [CPM] | Number of mistake [7] | Ca^++ [8] [µmol/L] | Cells viability (%) [9]
1 | C/C=C1\[C@H]2C=C(C)C[C@]1(N)c1ccc(=O)[nH]c1C2 [HUE, Huperzine] | 1280 ± 120 | 4.2 ± 0.5 Pmol NBT/mm^2, 20 min | 1860 | 150 | 210 | 350 | 10 | 2640 | *10.8 ± 1.5 | 160 | 80.2* %
2 | Clausenamide [CLE] | 1560 ± 102 | – | 1540 | – | – | – | 13 | 1580 | *11.2 ± 2.0 | 220 | 70.5* %
